In patent US20180125796A1, “TREATMENT OF MYCOBACTERIAL INFECTION” (priority 2015, published 2018):

Assays:
[1] = test system: lysosomal expansion/storage; assay: Lysotracker fluorescence (lysosomal expansion/storage); assay type: cell-based; conditions: FIG. 6B
Method: Cells were live stained with 50 nM Lysotracker green (Molecular Probes) in PBS at room temperature for 30 min prior to washing.

[2] = test system: mCherry-expressing M. bovis BCG; assay type: cell-based
GSL levels = conditions: mice; Platt 1997; cited from earlier work
[3] = cited from earlier work; for neurological side effects: adult mice, Andersson et al. 2004; for CNS penetration: mouse, in vivo
[4] = test system: total ganglioside and GM1 content; conditions: Kasperzyk et al. 2005; cited from earlier work
GSL biosynthesis = conditions: cited from earlier work
[5] = mouse models of GSL storage diseases; cited from earlier work
LE/Lys Ca^2+ = assay type: cell-based
NPC phenotypes = assay type: cell-based
GSL = assay type: cell-based
ER/neutral Ca^2+ store = assay: Cytosolic Ca^2+ / ER Ca^2+ store content probed with ionomycin; assay type: cell-based
BCG = assay type: cell-based, M. bovis BCG
[6] = test system: sarco-endoplasmic reticulum Ca^2+-ATPase (SERCA); conditions: Bilmen et al. 2001; cited from earlier work
M. smegmatis [7] = assay: Clearance of M. smegmatis in primary human macrophages; assay type: cell-based, Mycobacterium smegmatis; conditions: primary human macrophages treated with U18666A; FIG. 14
M. smegmatis [8] = assay: Clearance of M. smegmatis in wild-type mouse macrophages; assay type: cell-based, Mycobacterium smegmatis; conditions: U18666A-treated wild-type mouse macrophages; FIG. 13
M. smegmatis [9] = assay: Clearance of M. smegmatis in RAW 246.7 cells; assay type: cell-based, Mycobacterium smegmatis; conditions: RAW 246.7 cells incubated with U18666A (1 μg/ml, 48 hours) prior to infection; relative to untreated cells; FIG. 12
NPC1 = assay: TDM on bone marrow-derived macrophages from NPC1 heterozygous mice; assay type: cell-based, mouse

trehalose monomycolate [TMM]
Lysotracker fluorescence, NPC-like lysosomal expansion/storage [1]: only modest lysosomal expansion that did not reach statistical significance

CCCCN1C[C@H](O)[C@@H](O)[C@H](O)[C@H]1CO [miglustat, N-butyldeoxynojirimycin]
mycobacterial clearance, agent alone [2]: neither of these molecules alone promoted mycobacterial clearance
duration of treatment after which the effect on GSL levels stabilizes (GSL levels): 10 days
onset of decrease in GSL levels (GSL levels): measurable decrease in GSL levels within a day of treatment
neurological side effects [3]: not to cause neurological side effects
CNS penetration [3]: penetrate the CNS

CCCCN1C[C@H](O)[C@@H](O)[C@@H](O)[C@H]1CO [NB-DGJ, N-butyldeoxygalactonojirimycin]
total ganglioside and GM1 content in cerebrum-brainstem [4]: marked reduction
inhibition of GSL biosynthesis relative to NB-DNJ (GSL biosynthesis): comparably to NB-DNJ
neurological side effects [3]: not to cause neurological side effects
CNS penetration [3]: penetrate the CNS
tolerability [5]: very well tolerated

glucose monomycolate [GMM from non-pathogenic M. smegmatis]
Lysotracker fluorescence, NPC-like lysosomal expansion/storage [1]: minimal effects

trehalose dimycolate [TDM from M. bovis]
LE/Lys Ca^2+ levels (LE/Lys Ca^2+): reduced LE/Lys Ca^2+ levels
GM1 trafficking (NPC phenotypes): GM1 mistrafficking
GSL levels (GSL): GSL accumulation

COc1ccc(/C=C/C(=O)C(C)(C)C(=O)/C=C/c2ccc(OC)c(OC)c2)cc1OC [FLLL31]
BCG clearance [2]: had no effect
effect on cytosolic Ca^2+ levels (ER/neutral Ca^2+ store): has no effect on cytosolic Ca^2+ levels

COc1cc(/C=C/C(=O)CC(=O)/C=C/c2ccc(O)c(OC)c2)ccc1O [curcumin]
mycobacterial burden (BCG): significantly reduced mycobacterial burden
BCG clearance [2]: promoted BCG clearance
bacterial clearance in cells loaded with the Ca^2+ chelator BAPTA [2]: abrogated
level of infection (average fluorescence intensity of mCherry-expressing BCG) [2]: significantly lower level of infection
Ca^2+ uptake by SERCA [6]: inhibits Ca^2+ uptake
effect on cytosolic Ca^2+ levels (ER/neutral Ca^2+ store): raises cytosolic [Ca^2+ ]

OC[C@H]1O[C@@H]2O[C@H]3[C@H](O)[C@@H](O)[C@@H](O[C@H]4[C@H](O)[C@@H](O)[C@@H](O[C@H]5[C@H](O)[C@@H](O)[C@@H](O[C@H]6[C@H](O)[C@@H](O)[C@@H](O[C@H]7[C@H](O)[C@@H](O)[C@@H](O[C@H]8[C@H](O)[C@@H](O)[C@@H](O[C@H]1[C@H](O)[C@H]2O)O[C@@H]8CO)O[C@@H]7CO)O[C@@H]6CO)O[C@@H]5CO)O[C@@H]4CO)O[C@@H]3CO [3-cyclodextrin, β-cyclodextrin]
mycobacterial clearance, agent alone [2]: neither of these molecules alone promoted mycobacterial clearance

CCN(CC)CCO[C@H]1CC[C@@]2(C)C(=CC[C@@H]3[C@@H]2CC[C@]2(C)C(=O)CC[C@@H]32)C1 [U18666A]
clearance of M. smegmatis (M. smegmatis [7]): Impaired clearance of M. smegmatis
clearance of M. smegmatis (M. smegmatis [8]): Impaired clearance of M. smegmatis
ability to clear non-pathogenic M. smegmatis (M. smegmatis [9]): impaired ability to clear non-pathogenic M. smegmatis

glucose monomycolate [GMM]
Lysotracker fluorescence, NPC-like lysosomal expansion/storage [1]: only modest lysosomal expansion that did not reach statistical significance

trehalose dimycolate [TDM]
susceptibility of Npc1+/- macrophages (50% of wild-type NPC1 protein) to inhibition by TDM, versus wild-type (NPC1): more susceptible to inhibition
Lysotracker fluorescence, NPC-like lysosomal expansion/storage [1]: greatest increase in Lysotracker fluorescence
